Legend:
[1] = tested on: spontaneously diabetic BB/Wor dp rats; test: Metabolic parameters, serum insulin and glucagon after intratesticular islet grafts; type: in vivo, rat
Source text: This study examined insulin and glucagon secretory patterns in spontaneously diabetic bb/Wor dp rats transplanted with abdominal, intratesticular, islet grafts. Diabetic, BB/Wor dp, rats received intratesticular islet grafts from MHC-compatible BB/Wor dr rats and no immunosuppression. After a period of 74±15 days, of normoglycemia, three different groups (controls; BB/Wor dp, transplanted; and BB/Wor dp, insulin treated) were given the following challenges; (1) an oral glucose tolerance test (OGTT), (2) a single oral dose of glipizide, followed by an OGTT, and (3) arginine, by intravenous infusion. The results of this study are shown in Tables 1 and 2 and FIGS. 5 and 6.

[2] = tested on: spontaneously diabetic BB/Wor dp rats; test: Pancreatic and testicular insulin and glucagon content; type: in vivo, rat

insulin
Plasma Glucose ([1]; After 2.5 months): 350 ± 40 mg/dL | Plasma Glucose ([1]; Prior to therapy): 510 ± 13+ mg/dl | Fasting Plasma Glucagon ([1]; rat, in vivo): 47.4 ± 4.9 pg/mL | Weight gain ([1]; rat, in vivo): 48 ± 14$ g | Pancreatic Glucagon content ([2]; pancreas): 6.9 ± 0.80 ng/mg | Pancreatic Insulin content ([2]; pancreas): 0.76 ± 0.12 µg/g | Testicular Glucagon content ([2]; testes fractions): 0.0 ng/mg | Testicular Insulin content ([2]; testes fractions): 0.0 µg/g

Source: patent publication US20020065212A1, “METHODS OF TREATING DISEASE USING SERTOLI CELLS AND ALLOGRAFTS OR XENOGRAFTS” (priority 1996, published 2002)
